# Laboratory results from article PMC4942781, “A sodium channel inhibitor ISTX-I with a novel structure provides a new hint at the evolutionary link between two toxin folds” (Scientific Reports, 2016).
# Entries after “also recorded” stand apart in the source; their conditions may differ. Bridge positions count the residues as written; N and C are the ends. Ends that are not written are not given here.
# How the values were obtained:
# hNav1.5 = assay: Whole-cell patch clamp, hNav1.5 in HEK293T cells; assay type: cell-based, human; settings: 10 μM ISTX-I; 50 ms step to -10 mV from -80 mV
# Experimental: (§1) HEK293T (human embryonic kidney) cells were grown in DMEM containing 10% heat-inactivated FBS at 37 °C in a 5% CO2 incubator. The cDNA genes encoding human (h)Nav1.1, (h)Nav1.2, (h)Nav1.3, (h)Nav1.4, (h)Nav1.5, (h)Nav1.6 and (h)Nav1.7 were transiently transfected into HEK293T cells for electrophysiology using Lipofectamine-2000 (Invitrogen) in serum-reduced medium (Opti-MEM, Invitrogen) following the manufacturer’s instructions. The auxiliary subunits hβ1 and enhanced green florescent protein plasmids were cotransfected into HEK293T cells to increase the current density and efficiently select cells with green florescent protein for whole-cell patch-clamp recordings. After 12 h, the HEK293T cells were used for electrophysiological analysis.
# (§2) DRG neurons with a large diameter (>[…]) and those with a relatively small diameter (<[…]) were chosen by measuring TTX-s and TTX-r currents, respectively. […] Potassium, calcium, and sodium currents were recorded in experimental cells using whole-cell patch-clamp recordings at room temperature, which were performed with an HEK EPC10 patch-clamp amplifier. […] Experimental data were acquired and analyzed using the programs patch master and Sigmaplot 9.0 (Sigma, USA). […]
# (§3) Currents were recorded from experimental cells using whole-cell patch clamptechnique at room temperature (22–25 °C). […]
# hNav1.3 = assay: Whole-cell patch clamp, hNav1.3 in HEK293T cells; assay type: cell-based, human; settings: 10 μM ISTX-I; 50 ms step to -10 mV from -80 mV
# Experimental: as §1, §2, §3
# calcium channel = assay: Whole-cell patch clamp, Cav currents in DRG neurons; assay type: cell-based, rat; settings: 20 μM ISTX-I, 150 ms step depolarization to +10 mV from −90 mV, Ba2+ as charge carrier
# Experimental: (§4) Rat DRG cells were acutely dissociated from adult Sprague-Dawley rats[30]. Briefly, adult rats of either sex with body weights of approximately 200 g were killed by decapitation. The dorsal root ganglia were isolated quickly from the spinal cord and then transferred into Dulbecco’s modified Eagle’s medium (DMEM) containing trypsin I (0.15 mg/mL) and collagenase II (0.3 mg/mL) for incubation with an oscillation frequency of 200 rpm at 37 °C for 20 min. The trypsin inhibitor II-S (1 mg/mL) was added to terminate the reaction. […]
# as §2, §3
# 25, MgCl2 12, HEPES 10, and D-glucose 10 (pH 7.2). Calcium channel currents were measured using Ba2+ as the charge carrier. […]
# sodium channels = assay: Selectivity and mode of action on sodium channels, summary statements; assay type: cell-based
# Experimental: as §4, with “reaction. The isolated DRG cells were split into 35 mm culture dishes with DMEM solution containing 10% fetal bovine serum (FBS) and were incubated in a CO2 incubator (5% CO2, 95% air, 37 °C) for 1–4 h before the patch-clamp experiment.” for “reaction.”
# as §2, §3
sequence,measurement,setting,value
"LCSENGDCAADECCVDTVFEGDMVTRSCEKTTGNFTECPGLTPIA (disulfide 2-14, 8-28, 13-38) [ISTX-I]",effect on hNav1.5,hNav1.5,no effect
same,effect on hNav1.3,hNav1.3,no effect
same,effect on calcium channels,calcium channel,no obvious effects; also recorded: No effects were detected
same,shift of I-V and G-V curves upon inhibition of sodium channels (summary),sodium channels,without any shifts of the I-V and G-V curves
same,sodium channel subtype selectivity (in words),sodium channels,not other sodium channel subtypes; also recorded: specific activity on Nav1.7 subtypes; also recorded: subtype-selective inhibitor of Nav1.7
